The text below walks through data of US20080004282A1, “Compositions and methods for modulating gated ion channels” (PainCeptor Pharma Corporation, priority 2006, published 2008).

This experiment relates to chemically-induced spontaneous pain evoked by intraplantar injection of formalin. The experiment can be described thus: Formalin test (model of acute tonic pain). The following applies: rat; for pain intensity as evaluated by the flinching or licking behaviors: s.c. 30 min prior to formalin injection; for ED50: sc, s.c. 30 min prior to formalin, licking and biting episodes in phase IIa, read-out: ED50, effective dose where the pain score is reduced by half. The format is in vivo. From the text:
Model of Acute Tonic Pain
This example describes a procedure for the in vivo assessment of the inhibitory activity of the compounds of the present invention.
A number of well-established models of pain are described in the literature and are known to the skilled in the art (see, for example, Table 1). This example describes the use of the Formalin test.
Male Sprague-Dawley rats are housed together in groups of three animals under standard conditions with unrestricted access to food and water. All experiments are conducted according to the ethical guidelines for investigations of experimental pain in conscious animals (Zimmerman, 1983)
Assessment of formalin-induced flinching behavior in normal, uninjured rats (body weight 150-180 g) is made with the use of an Automated Nociception Analyser (University of California, San Diego, USA). Briefly, this involves placing a small C-shaped metal band (10 mm wide×27 mm long) on the hindpaw of the rat to be tested. The rats (four rats are included in each testing session) are then placed in a cylindrical plexiglass observation chamber (diameter 30.5 cm and height 15 cm) for 20 min for adaptation purposes prior to being administered drug or vehicle according to the experimental paradigm being followed. […] Rats are then returned to their separate observation chambers, each of which are in turn situated upon an enclosed detection device consisting of two electromagnetic coils designed to produce an electromagnetic field in which movement of the metal band could be detected. […] A sampling interval of 1 min is used and on the basis of the resulting response patterns 5 phases of nociceptive behaviour are identified and scored: first phase (P1; 0-5 min), interphase (Int; 6-15 min), second phase (P2; […]), phase 2A (P2A; 16-40 min) and phase 2B (P2B; 41-60 min).
Nociceptive behavior is also determined manually every 5 min by measuring the amount of time spent in each of four behavioral categories: 0, treatment of the injected hindpaw is indistinguishable from that of the contralateral paw; 1, the injected paw has little or no weight placed on it; 2, the injected paw is elevated and is not in contact with any surface; 3, the injected paw is licked, bitten, or shaken. A weighted nociceptive score, ranging from 0 to 3 is calculated by multiplying the time spent in each category by the category weight, summing these products, and dividing by the total time for each 5 min block of time. […] On the basis of the resulting response patterns, […] of nociceptive behavior are identified and scored: first phase (P1; 0-5 min), interphase (Int; 6-15 min), second phase (P2; […]), phase 2A (P2A; 16-40 min) and phase 2B (P2B; 41-60 min). […]

For the molecule `CCN1CCc2c(-c3ccccc3)cc(C#N)c(N)c2C1` [Compound 12, 8-Amino-2-ethyl-5-phenyl-1,2,3,4-tetrahydro-isoquinoline-7-carbonitrile], the “pain intensity as evaluated by the flinching or licking behaviors” value is on record as “dose-dependent reduction” and the ED50 (usually the dose at which the effect has come halfway, by size or by number of responders) worked out at 4 mg/kg.
In the same order, the values of `CCN1CCc2c(-c3cc(Cl)ccc3OC)cc(C#N)c(N)c2C1` [Compound 44] are “dose-dependent reduction” and 22 mg/kg.
